According to PubChem BioAssay AID248 (DTP/NCI, 2004):
Values joined by “and” are separate entries in the source; they are usually repeats but may differ in a detail not shown here. Equal entries are not always repeated. Toxic doses and inconclusive results are not listed. Cut-off read from the data, not from the text of the source: active = T/C of 150% or more; inactive = T/C below 125%.

Tested on: L1210 leukemia ip in BDF1 mice, survival T/C
Assay: NCI In Vivo Anticancer Drug Screen. Data for tumor model L1210 Leukemia (intraperitoneal) in B6D2F1 (BDF1) mice
Conditions: endpoint: mean survival time, higher = longer survival
Procedure, shortened: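 Value reflects the ratio of survival in compound-treated mice to survival in vehicle-treated controls, with both groups carrying the same transplanted tumor.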

[1] = dose: 100.0 mg/kg/injection, schedule: Q04DX003 (ip), vehicle: saline
[2] = dose: 200.0 mg/kg/injection, schedule: Q04DX003 (ip), vehicle: saline
[3] = dose: 400.0 mg/kg/injection, schedule: Q04DX003 (ip), vehicle: saline
[4] = dose: 50.0 mg/kg/injection, schedule: Q01DX009 (ip), vehicle: saline
[5] = dose: 50.0 mg/kg/injection, schedule: Q04DX003 (ip), vehicle: saline
[6] = dose: 100.0 mg/kg/injection, schedule: Q01DX009 (ip), vehicle: saline
[7] = dose: 50.0 mg/kg/injection, schedule: Q04DX003 (ip), vehicle: Klucel (hydroxypropylcellulose) (HPC)
[8] = dose: 100.0 mg/kg/injection, schedule: Q01DX009 (ip), vehicle: Klucel (hydroxypropylcellulose) (HPC)
[9] = dose: 100.0 mg/kg/injection, schedule: Q04DX003 (ip), vehicle: Klucel (hydroxypropylcellulose) (HPC)
[10] = dose: 200.0 mg/kg/injection, schedule: Q01DX009 (ip), vehicle: Klucel (hydroxypropylcellulose) (HPC)
[11] = dose: 100.0 mg/kg/injection, schedule: Q04DX003 (ip), vehicle: saline with Tween-80
[12] = dose: 200.0 mg/kg/injection, schedule: Q04DX003 (ip), vehicle: saline with Tween-80
[13] = dose: 400.0 mg/kg/injection, schedule: Q04DX003 (ip), vehicle: saline with Tween-80
[14] = dose: 50.0 mg/kg/injection, schedule: Q01DX001 (ip), vehicle: Klucel (hydroxypropylcellulose) (HPC)
[15] = dose: 100.0 mg/kg/injection, schedule: Q01DX001 (ip), vehicle: Klucel (hydroxypropylcellulose) (HPC)
[16] = dose: 200.0 mg/kg/injection, schedule: Q01DX001 (ip), vehicle: Klucel (hydroxypropylcellulose) (HPC)

Measured: T/C

CCOC(=O)Nc1nc(NC(=O)OCC)c(Cl)nc1Cl
inactive: dose: 25.0 mg/kg/injection, schedule: Q01DX009 (ip), vehicle: water 104 % of control | dose: 50.0 mg/kg/injection, schedule: Q01DX009 (ip), vehicle: water 100 % of control | dose: 100.0 mg/kg/injection, schedule: Q01DX009 (ip), vehicle: water 114 % of control | dose: 200.0 mg/kg/injection, schedule: Q01DX009 (ip), vehicle: water 106 % of control | dose: 400.0 mg/kg/injection, schedule: Q01DX009 (ip), vehicle: water 97 % of control

COc1ccc(C[Si](C)C)cc1
inactive: [1] 93 % of control | [2] 98 % of control | [3] 94 % of control

OC1C=CC2C3C=CC(C3)C12 (configuration not stated)
inactive: [4] 102 % of control | [5] 102 % of control | [6] 104 % of control | [1] 103 % of control | dose: 200.0 mg/kg/injection, schedule: Q01DX009 (ip), vehicle: saline 95 % of control | [2] 94 % of control | dose: 400.0 mg/kg/injection, schedule: Q01DX009 (ip), vehicle: saline 95 % of control | [3] 91 % of control

CC(=O)Oc1c(C(C)(C)C)cc([N+](=O)[O-])c(C)c1[N+](=O)[O-]
inactive: dose: 25.0 mg/kg/injection, schedule: Q04DX002 (ip), vehicle: Klucel (hydroxypropylcellulose) (HPC) 95 % of control | dose: 50.0 mg/kg/injection, schedule: Q04DX002 (ip), vehicle: Klucel (hydroxypropylcellulose) (HPC) 97 % of control

Oc1cccc2cccnc12.[Al]
inactive: dose: 10.0 mg/kg/injection, schedule: Q01DX Z (ip), vehicle: carboxymethylcellulose (CMC) 93 % of control | dose: 20.0 mg/kg/injection, schedule: Q01DX Z (ip), vehicle: carboxymethylcellulose (CMC) 97 % of control | dose: 40.0 mg/kg/injection, schedule: Q01DX Z (ip), vehicle: carboxymethylcellulose (CMC) 93 % of control | dose: 50.0 mg/kg/injection, schedule: Q01DX009 (ip), vehicle: Klucel (hydroxypropylcellulose) (HPC) 94 % of control | [7] 101 % of control | [8] 100 % of control | [9] 102 % of control | [10] 96 % of control | dose: 200.0 mg/kg/injection, schedule: Q04DX003 (ip), vehicle: Klucel (hydroxypropylcellulose) (HPC) 101 % of control

NC(=O)NN=C1COC(c2ccccc2)OC1 (configuration not stated)
inactive: [4] 98 % of control | [6] 89 % of control | [1] 101 % of control | [2] 93 % of control

c1ccc([Si](c2ccccc2)(c2ccccc2)c2ccc([Si](c3ccccc3)(c3ccccc3)c3ccccc3)cc2)cc1
inactive: dose: 100.0 mg/kg/injection, schedule: Q01DX009 (ip), vehicle: saline with Tween-80 95 % of control | [11] 103 % of control | dose: 200.0 mg/kg/injection, schedule: Q01DX009 (ip), vehicle: saline with Tween-80 92 % of control | [12] 90 % of control | dose: 400.0 mg/kg/injection, schedule: Q01DX009 (ip), vehicle: saline with Tween-80 90 % of control | [13] 106 % of control

CCN(CC)C(=O)c1ccc[n+](CC(=O)Nc2ccc(Cl)cc2)c1
inactive: dose: 12.5 mg/kg/injection, schedule: Q01DX009 (ip), vehicle: saline with Tween-80 97 % of control | dose: 12.5 mg/kg/injection, schedule: Q04DX003 (ip), vehicle: saline with Tween-80 100 % of control | dose: 25.0 mg/kg/injection, schedule: Q01DX009 (ip), vehicle: saline with Tween-80 97 % of control | dose: 25.0 mg/kg/injection, schedule: Q04DX003 (ip), vehicle: saline with Tween-80 94 % of control | dose: 50.0 mg/kg/injection, schedule: Q01DX009 (ip), vehicle: saline with Tween-80 97 % of control | dose: 50.0 mg/kg/injection, schedule: Q04DX003 (ip), vehicle: saline with Tween-80 103 % of control

Cc1no[n+]([O-])c1C(N)=O
inactive: dose: 100.0 mg/kg/injection, schedule: Q04DX002 (ip), vehicle: Klucel (hydroxypropylcellulose) (HPC) 98 % of control | dose: 200.0 mg/kg/injection, schedule: Q04DX002 (ip), vehicle: Klucel (hydroxypropylcellulose) (HPC) 95 % of control | dose: 400.0 mg/kg/injection, schedule: Q04DX002 (ip), vehicle: Klucel (hydroxypropylcellulose) (HPC) 98 % of control

Clc1ccc(/C=N\c2nn[nH]n2)c(Cl)c1 (tested in a mixture with another compound)
inactive: [1] 89 % of control | [2] 89 % of control | [3] 98 % of control

CCOC(=O)/C=C(\COC)c1ccccc1
inactive: dose: 100.0 mg/kg/injection, schedule: Q01DX001 (ip), vehicle: saline 104 % of control | dose: 200.0 mg/kg/injection, schedule: Q01DX001 (ip), vehicle: saline 104 % of control | dose: 400.0 mg/kg/injection, schedule: Q01DX001 (ip), vehicle: saline 104 % of control

CCCCCCCCCCCCCC[n+]1cccc(C#N)c1
inactive: dose: 10.0 mg/kg/injection, schedule: Q01DX001 (ip), vehicle: saline 100 % of control | dose: 10.0 mg/kg/injection, schedule: Q04DX003 (ip), vehicle: saline 93 % of control | dose: 20.0 mg/kg/injection, schedule: Q01DX001 (ip), vehicle: saline 100 % of control | dose: 20.0 mg/kg/injection, schedule: Q04DX003 (ip), vehicle: saline 93 % of control | dose: 40.0 mg/kg/injection, schedule: Q01DX001 (ip), vehicle: saline 97 % of control | dose: 40.0 mg/kg/injection, schedule: Q04DX003 (ip), vehicle: saline 86 % of control

CCOC(=O)Cc1cc(=O)c2ccc(Cl)cc2[nH]1
inactive: dose: 100.0 mg/kg/injection, schedule: Q01DX001 (ip), vehicle: other 92 % of control | dose: 200.0 mg/kg/injection, schedule: Q01DX001 (ip), vehicle: other 97 % of control | dose: 400.0 mg/kg/injection, schedule: Q01DX001 (ip), vehicle: other 92 % of control

C#CC1(OC(=O)NS(=O)(=O)c2ccc(C)cc2)CCCCC1
inactive: dose: 100.0 mg/kg/injection, schedule: Q01DX001 (ip), vehicle: saline with Tween-80 97 % of control | [11] 103 % of control | dose: 200.0 mg/kg/injection, schedule: Q01DX001 (ip), vehicle: saline with Tween-80 101 % of control | [12] 95 % of control | dose: 400.0 mg/kg/injection, schedule: Q01DX001 (ip), vehicle: saline with Tween-80 103 % of control | [13] 101 % of control

CCCCCCOC(=O)C1OC1(C)c1ccccc1 (configuration not stated)
inactive: dose: 100.0 mg/kg/injection, schedule: Q04DX002 (ip), vehicle: saline 108 % of control | dose: 200.0 mg/kg/injection, schedule: Q04DX002 (ip), vehicle: saline 112 % of control | dose: 400.0 mg/kg/injection, schedule: Q04DX002 (ip), vehicle: saline 93 % of control

NC(C(=O)O)C(CC(=O)O)C(=O)O (configuration not stated)
inactive: [1] 93 % of control | [2] 95 % of control | [3] 98 % of control

c1ccc(N/N=C(\Oc2ccccc2)c2ccccc2)cc1
inactive: [11] 93 % of control | [12] 96 % of control | [13] 96 % of control

C=C(Nc1ccc2ccccc2c1)S(=O)(=O)O
inactive: [8] 94 % of control | [10] 103 % of control | dose: 400.0 mg/kg/injection, schedule: Q01DX009 (ip), vehicle: Klucel (hydroxypropylcellulose) (HPC) 96 % of control

CCSc1nc(C2NC(C(=O)O)CS2)cc(=O)[nH]1 (configuration not stated)
inactive: [14] 98 % of control | [15] 98 % of control | [16] 97 % of control

NNc1cc(NN)c2[nH]cnc2n1
inactive: dose: 25.0 mg/kg/injection, schedule: Q01DX001 (ip), vehicle: Klucel (hydroxypropylcellulose) (HPC) 100 % of control | dose: 25.0 mg/kg/injection, schedule: Q04DX003 (ip), vehicle: Klucel (hydroxypropylcellulose) (HPC) 102 % of control | [14] 93 % of control | [7] 105 % of control | [15] 100 % of control and 108 % of control | [9] 112 % of control

OC1/C(=C/c2ccco2)CCC2CCCCC21 (configuration not stated)
inactive: [15] 101 % of control | [16] 98 % of control | dose: 400.0 mg/kg/injection, schedule: Q01DX001 (ip), vehicle: Klucel (hydroxypropylcellulose) (HPC) 90 % of control

COc1ccc(C(=O)C(C)(CN(C)C)c2ccccc2)cc1 (configuration not stated)
inactive: dose: 25.0 mg/kg/injection, schedule: Q01DX009 (ip), vehicle: saline 93 % of control | dose: 25.0 mg/kg/injection, schedule: Q04DX003 (ip), vehicle: saline 92 % of control | [4] 100 % of control | [5] 94 % of control | [6] 102 % of control | [1] 93 % of control and 101 % of control
